In patent publication US20240158348A1, “HERBICIDAL CYCLIC AMIDES N-SUBSTITUTED WITH A HALOALKYLSULFONYLANILIDE GROUP” (FMC Corporation, priority 2021, published 2024):

Tests used:
Format in all cases: in vivo
[1] = system: sedge, umbrella (small-flower umbrella sedge, Cyperus difformis); test: Test D flooded paddy test, umbrella sedge; design: key: 0 = no effect, 100 = complete control; settings: 250 g ai/ha, Flood; applied to paddy water at 2-leaf stage; visual rating after 13 days; scale 0 (no effect) to 100 (complete control)
Method in brief: (§1)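 Visual response scores run 0 (no effect) to 100 (complete control), judged against controls 13 days after treatment. Compounds were added to paddy water 3 cm deep over soil, around plants at the 2-leaf stage kept in a greenhouse.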

[2] = system: kochia (Bassia scoparia); test: Test C postemergence, kochia; settings: for Kochia plant response rating: 31 g ai/ha Postemergence, visual injury, 0 to 100 scale (0 no effect, 100 complete control); for Plant response rating (0 to 100 scale), Kochia: 125 g ai/ha Postemergence, 0 is no effect, 100 is complete control
Method in brief: (§2)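 Plants grown in a sand and loam soil blend received the formulated test chemicals either as a preemergence soil-directed spray or postemergence at 2 to 10 cm height. After 10 or 12 greenhouse days, injury was assessed visually, with 100 meaning complete control.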

[3] = system: rice (Oryza sativa); test: Test D flooded paddy test, rice; design: key: 0 = no effect, 100 = complete control; settings: 250 g ai/ha, Flood; applied to paddy water at 2-leaf stage; visual rating after 13 days; scale 0 (no effect) to 100 (complete control)
Method in brief: as §1

[4] = system: oat, wild (wild oat, Avena fatua); test: Test C preemergence, wild oat; settings: 0 is no effect, 100 is complete control
Method in brief: as §2

[5] = system: pigweed, palmer (palmer amaranth, Amaranthus palmeri); test: Test C postemergence, palmer amaranth; settings: for Pigweed, Palmer plant response rating: visual injury, 0 to 100 scale (0 no effect, 100 complete control)
Method in brief: as §2

[6] = system: galium (catchweed bedstraw, Galium aparine); test: Test C postemergence, galium; settings: for Galium plant response rating: 31 g ai/ha Postemergence, visual injury, 0 to 100 scale (0 no effect, 100 complete control); for Plant response rating (0 to 100 scale), Galium: 125 g ai/ha Postemergence, 0 is no effect, 100 is complete control
[7] = system: blackgrass (Alopecurus myosuroides); test: Test C postemergence, blackgrass; settings: 125 g ai/ha Postemergence; 0 is no effect, 100 is complete control
[8] = system: blackgrass (Alopecurus myosuroides); test: Test C preemergence, blackgrass; settings: 0 is no effect, 100 is complete control
Method in brief: as §2

[9] = system: horseweed (Erigeron canadensis); test: Test C postemergence, horseweed
Method in brief: as §2

[10] = 125 g ai/ha Postemergence, 0 is no effect, 100 is complete control

Row | SMILES | Plant response rating, Sedge, Umbrella [1] | Kochia plant response rating [2] | Plant response rating (0 to 100 scale), Kochia [2] | Plant response rating, Rice [3] | Plant response rating (0 to 100 scale), Oat, Wild ([4]; 31 g ai/ha Preemergence) | Plant response rating (0 to 100 scale), Oat, Wild ([4]; 125 g ai/ha Preemergence) | Pigweed, Palmer plant response rating ([5]; 31 g ai/ha Postemergence) | Pigweed, Palmer plant response rating ([5]; 125 g ai/ha Postemergence) | Galium plant response rating [6] | Plant response rating (0 to 100 scale), Galium [6] | Plant response rating (0 to 100 scale), Blackgrass [7] | Plant response rating (0 to 100 scale), Blackgrass ([8]; 31 g ai/ha Preemergence) | Plant response rating (0 to 100 scale), Blackgrass ([8]; 125 g ai/ha Preemergence) | Horseweed plant response rating ([9]; 31 g ai/ha Postemergence, visual injury, 0 to 100 scale (0 no effect, 100 complete control)) | Plant response rating (0 to 100 scale), Horseweed [9, 10] | Plant response rating (0 to 100 scale), Pigweed, Palmer [5, 10]
1 | Cc1cc(C)c(N2CCC(OC3CC3)C2=O)cc1NS(=O)(=O)C(F)(F)F (single isomer, unassigned) [Compound 29] | 95 | 60 | 90 | 85 | 90 | 90 | 60 | 90 | 80 | 100 | 70 | 90 | 90 |  |  | 
2 | Cc1cc(C)c(N2CCC(OC3CC3)C2=O)cc1NS(=O)(=O)C(F)(F)F (single isomer, unassigned) [Compound 30] | 98 | 80 | 90 | 75 | 80 | 100 | 60 | 90 | 80 | 100 | 90 | 80 | 100 |  |  | 
3 | C=CCO/N=C1\CCN(c2cc(NS(=O)(=O)C(F)(F)F)c(C)cc2C)C1=O [Compound 11] | 100 | 40 | 90 | 45 | 30 | 100 | 40 |  | 80 | 100 | 90 | 60 | 100 | 20 | 70 | 90
4 | Cc1c(NS(=O)(=O)C(F)(F)F)cc(N2CCC(OC3CCC3)C2=O)c(C)c1F (centres unmarked) [Compound 25] | 90 | 60 | 90 | 15 | 40 | 90 | 70 | 90 | 100 | 100 | 90 | 80 | 90 |  |  | 
5 | Cc1c(NS(=O)(=O)C(F)(F)F)cc(N2CCC(OC3CC3)C2=O)c(C)c1F (centres unmarked) [Compound 26] | 95 | 70 | 90 | 65 | 60 | 100 | 70 | 90 | 100 | 100 | 90 | 70 | 90 |  |  | 
6 | Cc1c(N2CCC(OC3CCC3)C2=O)cc(N(COC(=O)C(C)(C)C)S(=O)(=O)C(F)(F)F)c(C)c1F (centres unmarked) [Compound 28] | 95 | 50 | 80 | 30 | 0 | 20 | 50 | 90 | 90 | 100 | 70 | 50 | 60 |  |  | 
